# Laboratory results taken from US20260355274A1 (Onkure, Inc., priority 2022, published 2026).
# Tests used:
# [1] = system: SKMEL2 melanoma cell line; experiment: 72 hour proliferation assay (CellTiter-Glo), SKMEL2 melanoma, NRAS mutated; type: cell-based; conditions: combined with binimetinib
# Description: (§1) In particular, cells are grown in multi-well plates and incubated with the OKI-005 and binimetinib for 72 hours. The number of viable cells is determined by luminescence readout after the addition of CellTiter-Glo (CTG) dye.
# In particular, in FIGS. 9A and 9B, cells are grown in multi-well plates and incubated with the OKI-005 and binimetinib for 72 hours. The number of viable cells is determined by luminescence readout after the addition of CellTiter-Glo (CTG) dye. SEM is the standard error of the mean, […]
# [2] = system: AGS human gastric adenocarcinoma hyperdiploid cell line; experiment: 72 hour proliferation assay (CellTiter-Glo), AGS, KRAS G12D; type: cell-based
# Description: as §1
# (§2) FIGS. 12A, 12B and 12C illustrate the results of studies of the combination of OKI-005 with each of binimetinib, GDC-0994 and sotorasib in the NCI-H358 (NSCLC KRAS^G12C) cell line. FIGS. 12D, 12E and 12F illustrate the results of studies of the combination of OKI-005 with each of binimetinib, GDC-0994 and MRTX1133 (a KRAS^G12D Inhibitor) in the AGS (Gastric KRAS^G12D) cell line. […] In particular, cells are grown in multi-well plates and incubated with the OKI-005 and binimetinib for 72 hours. The number of viable cells is determined by luminescence readout after the addition of CellTiter-Glo (CTG) dye.
# [3] = system: NCI-H358 non-small cell lung cancer cell line; experiment: 72 hour proliferation assay (CellTiter-Glo), NCI-H358, KRAS G12C; type: cell-based
# Description: as §1, §2
# [4] = system: human uveal melanoma cell line 92-1; experiment: 72 hour proliferation assay (CellTiter-Glo), uveal melanoma 92-1; type: cell-based; conditions: combined with binimetinib, GNAQ/11 Q209L
# Description: as §1
# [5] = system: human uveal melanoma cell line MP46; experiment: 72 hour proliferation assay (CellTiter-Glo), uveal melanoma MP46; type: cell-based; conditions: combined with binimetinib, GNAQ/11 Q209L
# Description: as §1
# [6] = system: RAS mutated cell lines and RAS WT cell lines; experiment: 72-hour proliferation assay, RAS mutated versus RAS wild-type cell lines; type: cell-based; conditions: combined with binimetinib, physiologically relevant concentrations, Day 3 compared to Day 0
# Description: . The RAS mutated cell lines and the RAS WT cell lines involved in this study represent conventional and well known cell lines for this purpose. See, e.g., FIG. 16.
# [7] = system: MGMT-positive human tumor cell lines versus MGMT-negative human tumor cell lines; experiment: synergy in MGMT-positive versus MGMT-negative tumor cell lines; type: cell-based; conditions: combination with binimetinib compared to OKI-005 or binimetinib alone
# [8] = metabolism to active compound; conditions: to OKI-006
# Description: The following figures are illustrative of specific embodiments of the invention and are not intended to otherwise limit the scope of the invention as described herein. OKI-005 is an in vitro optimized tool compound. […] In the figures, “bini” is equivalent to binimetinib (a MEK 1/2 inhibitor) and “enco” is equivalent to encorafenib (a BRAF inhibitor).
# [9] = system: SKMEL2 xenograft; experiment: SKMEL2 NRAS mutated xenograft, tumor growth and regressions; type: in vivo, mouse; conditions: for tumor growth delay and regressions: single agent, SKMEL2 NRAS mutated xenograft
# Description: (§3) As used herein, “Son/2off” refers to a dosing schedule of 5 days on and 2 days off each week. […] Glyceraldehyde 3-phosphate dehydrogenase (GAPDH) was used as a control.
# [10] = system: Ac-H3K9; experiment: Ac-H3K9 in SKMEL2 tumors (HDACi PD); type: in vivo; conditions: 2 hours post dose
# Description: as §3
# [11] = system: HT29 BRAF^V600E colorectal (CRC) xenografts; experiment: HT29 BRAF V600E colorectal xenografts, regressions; type: in vivo, mouse; conditions: combined with binimetinib and encorafenib, following two weeks of dosing
# [12] = mouse body weight change, HT29 xenograft study; type: in vivo; conditions: combined with binimetinib and encorafenib, up to 15 days after randomization
# [13] = system: NCI-H358 KRAS^G12C non-small cell lung cancer xenografts; experiment: NCI-H358 KRAS G12C NSCLC xenografts, regressions; type: in vivo, mouse; conditions: combined with sotorasib, 50-day period after dosing
# Description: As used herein, “4on/3off” refers to a dosing schedule of 4 days on and 3 days off each week.
# [14] = system: RAS-pathway mutated models; experiment: preclinical activity in RAS-pathway mutated models; type: in vivo; conditions: in combination with binimetinib
# Description: As an example of the frequency of mutations associated with various cancers, mutations in NRAS account for 20% of all melanomas and affect approximately 65,000 patients worldwide. Such melanomas have a tendency to be more aggressive than their wild-type counterparts and frequently have poor outcomes. Current therapies for NRAS-mutant melanoma remain limited, with little efficacy. No targeted therapies are currently available post PD1i.
# [15] = system: advanced cancer patients; experiment: maximally-tolerated dose in advanced cancer patients; type: in vivo, human
# Description: It will be appreciated that appropriate dosages can vary from patient to patient. Determining the optimal dosage will generally involve the balancing of the level of therapeutic benefit against any risk or deleterious side effects of the treatments described herein. The selected dosage level will depend on a variety of factors including, but not limited to, the activity of the particular compound, the route of administration, the time of administration, the rate of excretion of the compound, the duration of the treatment, other drugs, compounds, or materials used in combination, and the age, sex, weight, condition, general health, and prior medical history of the patient. The amount(s) of the compound(s) administered and the route of administration will ultimately be at the discretion of a physician. […] On Schedule 2, the MTD was 200 mg daily on a continuous dosing regimen and on Schedule 3, the MTD was 300 mg for 5 days on and 2 days off each week.
# [16] = system: patients with solid tumors; experiment: Phase 1 clinical trials in patients with solid tumors; type: in vivo, human; conditions: Phase 1, single agent, oral
# [17] = system: mouse xenograft models; conditions: with binimetinib
# [18] = target: HDAC 2 (Homo sapiens, UniProt Q92769); experiment: enzymatic inhibition of HDAC 2; type: biochemical
# Description: (§4) The mammalian HDACs can be divided into four classes depending on their sequence homology, sub-cellular distribution and catalytic activity. Class I, Il and IV HDACs have a Zn^2+ cofactor in the catalytic site. Class III HDACs contain sirtuins 1-7 and are NAD^+-dependent. Class I (HDACs 1, 2, 3 and 8) share the same homology as Rpd3 and are preliminarily distributed in the nucleus of normal cells. Class II HDACs can be subdivided into class IIa HDACs and class Ilb HDACs. Class IIa enzymes (HDAC 4, 5, 7 and 9) shuttle between the nucleus and cytoplasm and are located in specific tissues such as the brain, heart, and muscle. Class IIb (HDACs 6 and 10) are chiefly located in the cytoplasm.
# [19] = target: HDAC 8 (Homo sapiens, UniProt Q9BY41); experiment: enzymatic inhibition of HDAC 8; type: biochemical
# Description: as §4
# [20] = target: HDAC 4 (Homo sapiens, UniProt P56524); experiment: enzymatic inhibition of HDAC 4; type: biochemical
# Description: as §4
# [21] = target: HDAC 5 (Homo sapiens, UniProt Q9UQL6); experiment: enzymatic inhibition of HDAC 5; type: biochemical
# Description: as §4
# [22] = target: HDAC 7 (Homo sapiens, UniProt Q8WUI4); experiment: enzymatic inhibition of HDAC 7; type: biochemical
# Description: as §4
# [23] = target: HDAC 9 (Homo sapiens, UniProt Q9UKV0); experiment: enzymatic inhibition of HDAC 9; type: biochemical
# Description: as §4
# [24] = target: HDAC 6 (Homo sapiens, UniProt Q9UBN7); experiment: enzymatic inhibition of HDAC 6; type: biochemical
# Description: as §4
# [25] = target: HDAC 10 (Homo sapiens, UniProt Q969S8); experiment: enzymatic inhibition of HDAC 10; type: biochemical; conditions: HDAC 10, Class IIb
# Description: as §4
# [26] = target: HDAC 11 (Homo sapiens, UniProt Q96DB2); experiment: enzymatic inhibition of HDAC 11; type: biochemical; conditions: HDAC 11, Class IV
# Description: as §4
# [27] = system: pERK; experiment: pERK in SKMEL2 tumors (MEKi PD); type: in vivo; conditions: 2 hours post dose
# Description: as §3
# [28] = system: KRAS^G12C pancreatic cancer; conditions: single-agent RAS pathway inhibition; cited from earlier work
# [29] = system: KRAS^G12C colorectal cancer (CRC); conditions: single-agent RAS pathway inhibition; cited from earlier work
# [30] = system: BRAF^V600E melanoma; conditions: single-agent RAS pathway inhibition; cited from earlier work
# [31] = system: BRAF^V600E colorectal cancer (CRC); conditions: single-agent RAS pathway inhibition; cited from earlier work
# [32] = combined with binimetinib, 72 hours, KRAS
# Chain of HDAC 9 (Q9UKV0 whole entry): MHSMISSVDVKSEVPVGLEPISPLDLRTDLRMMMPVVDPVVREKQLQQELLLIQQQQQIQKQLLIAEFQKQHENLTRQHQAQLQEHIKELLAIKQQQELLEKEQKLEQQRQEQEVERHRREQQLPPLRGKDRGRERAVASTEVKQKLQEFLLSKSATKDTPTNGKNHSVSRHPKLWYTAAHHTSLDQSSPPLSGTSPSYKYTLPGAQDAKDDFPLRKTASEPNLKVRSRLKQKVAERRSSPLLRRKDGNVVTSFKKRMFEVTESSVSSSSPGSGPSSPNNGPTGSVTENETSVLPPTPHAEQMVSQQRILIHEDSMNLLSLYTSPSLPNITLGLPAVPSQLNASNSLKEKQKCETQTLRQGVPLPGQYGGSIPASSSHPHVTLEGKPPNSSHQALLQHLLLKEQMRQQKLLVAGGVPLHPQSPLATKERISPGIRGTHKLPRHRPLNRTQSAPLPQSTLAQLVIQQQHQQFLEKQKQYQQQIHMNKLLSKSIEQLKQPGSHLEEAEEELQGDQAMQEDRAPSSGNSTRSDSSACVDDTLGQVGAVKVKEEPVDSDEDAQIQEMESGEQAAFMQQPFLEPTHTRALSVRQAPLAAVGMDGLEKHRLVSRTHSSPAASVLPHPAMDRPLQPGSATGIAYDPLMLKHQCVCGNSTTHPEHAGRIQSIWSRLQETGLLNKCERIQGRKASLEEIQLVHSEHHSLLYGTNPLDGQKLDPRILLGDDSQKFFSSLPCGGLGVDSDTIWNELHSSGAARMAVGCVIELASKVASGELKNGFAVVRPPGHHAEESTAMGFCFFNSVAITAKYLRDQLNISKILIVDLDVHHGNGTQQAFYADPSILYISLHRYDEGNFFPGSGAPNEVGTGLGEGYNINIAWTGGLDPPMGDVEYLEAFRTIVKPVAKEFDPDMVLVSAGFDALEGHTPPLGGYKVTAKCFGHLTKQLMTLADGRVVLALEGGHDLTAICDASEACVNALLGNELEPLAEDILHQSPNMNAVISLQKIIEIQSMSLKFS
# Chain of HDAC 2 (Q92769 whole entry): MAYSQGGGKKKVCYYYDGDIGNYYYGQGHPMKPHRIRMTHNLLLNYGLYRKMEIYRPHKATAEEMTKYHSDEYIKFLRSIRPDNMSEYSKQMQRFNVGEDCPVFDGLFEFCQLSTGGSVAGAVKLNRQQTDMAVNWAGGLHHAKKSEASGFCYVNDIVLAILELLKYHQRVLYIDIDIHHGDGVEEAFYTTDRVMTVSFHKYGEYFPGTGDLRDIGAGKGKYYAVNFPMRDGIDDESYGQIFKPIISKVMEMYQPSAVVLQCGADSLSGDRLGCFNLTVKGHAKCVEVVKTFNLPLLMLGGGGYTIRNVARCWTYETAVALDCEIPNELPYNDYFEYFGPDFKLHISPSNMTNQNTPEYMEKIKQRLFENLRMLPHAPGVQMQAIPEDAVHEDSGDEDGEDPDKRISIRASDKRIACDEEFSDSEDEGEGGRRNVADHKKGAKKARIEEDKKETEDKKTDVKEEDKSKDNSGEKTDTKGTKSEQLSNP
# Chain of HDAC 6 (Q9UBN7 whole entry): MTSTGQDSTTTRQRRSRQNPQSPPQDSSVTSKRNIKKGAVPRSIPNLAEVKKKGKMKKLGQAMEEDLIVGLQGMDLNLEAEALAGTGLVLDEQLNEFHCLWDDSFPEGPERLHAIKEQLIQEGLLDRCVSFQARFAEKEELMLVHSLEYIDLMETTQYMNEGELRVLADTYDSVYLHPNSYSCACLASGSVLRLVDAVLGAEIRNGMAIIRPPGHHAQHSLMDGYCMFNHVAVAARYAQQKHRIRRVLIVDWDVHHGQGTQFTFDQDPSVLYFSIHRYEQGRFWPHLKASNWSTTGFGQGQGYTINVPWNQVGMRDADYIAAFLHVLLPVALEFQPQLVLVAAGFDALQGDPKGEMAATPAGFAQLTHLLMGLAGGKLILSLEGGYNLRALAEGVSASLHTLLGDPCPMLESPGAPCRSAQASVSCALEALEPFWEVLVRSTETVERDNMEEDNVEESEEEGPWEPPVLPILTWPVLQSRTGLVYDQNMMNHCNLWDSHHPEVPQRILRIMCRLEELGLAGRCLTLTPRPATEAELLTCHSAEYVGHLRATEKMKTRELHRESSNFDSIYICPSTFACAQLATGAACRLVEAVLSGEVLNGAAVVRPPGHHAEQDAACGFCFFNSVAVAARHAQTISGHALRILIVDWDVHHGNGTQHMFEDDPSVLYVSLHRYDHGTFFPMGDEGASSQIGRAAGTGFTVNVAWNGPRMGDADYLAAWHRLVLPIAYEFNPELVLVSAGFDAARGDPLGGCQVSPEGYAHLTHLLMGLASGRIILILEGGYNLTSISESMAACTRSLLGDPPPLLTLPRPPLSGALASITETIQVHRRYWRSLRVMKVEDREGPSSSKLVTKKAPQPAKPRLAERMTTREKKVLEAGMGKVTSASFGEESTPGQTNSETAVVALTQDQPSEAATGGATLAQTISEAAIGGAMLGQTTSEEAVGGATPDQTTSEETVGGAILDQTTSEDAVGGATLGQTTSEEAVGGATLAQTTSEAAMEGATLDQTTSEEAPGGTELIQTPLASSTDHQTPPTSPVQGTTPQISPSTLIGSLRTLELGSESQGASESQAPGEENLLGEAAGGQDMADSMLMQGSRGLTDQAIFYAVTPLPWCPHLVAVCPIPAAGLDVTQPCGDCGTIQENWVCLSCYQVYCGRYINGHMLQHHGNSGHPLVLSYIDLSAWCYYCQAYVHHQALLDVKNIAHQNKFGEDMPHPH
# Chain of HDAC 8 (Q9BY41 whole entry): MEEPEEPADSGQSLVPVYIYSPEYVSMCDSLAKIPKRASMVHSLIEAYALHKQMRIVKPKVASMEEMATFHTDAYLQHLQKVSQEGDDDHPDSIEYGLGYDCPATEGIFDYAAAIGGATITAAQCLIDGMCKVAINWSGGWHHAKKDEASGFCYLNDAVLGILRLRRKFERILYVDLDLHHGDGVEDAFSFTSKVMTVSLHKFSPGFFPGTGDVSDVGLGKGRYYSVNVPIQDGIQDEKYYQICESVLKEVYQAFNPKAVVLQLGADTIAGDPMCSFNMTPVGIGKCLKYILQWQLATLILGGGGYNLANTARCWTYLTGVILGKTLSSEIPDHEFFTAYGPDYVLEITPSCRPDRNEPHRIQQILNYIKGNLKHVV
# Chain of HDAC 5 (Q9UQL6 whole entry): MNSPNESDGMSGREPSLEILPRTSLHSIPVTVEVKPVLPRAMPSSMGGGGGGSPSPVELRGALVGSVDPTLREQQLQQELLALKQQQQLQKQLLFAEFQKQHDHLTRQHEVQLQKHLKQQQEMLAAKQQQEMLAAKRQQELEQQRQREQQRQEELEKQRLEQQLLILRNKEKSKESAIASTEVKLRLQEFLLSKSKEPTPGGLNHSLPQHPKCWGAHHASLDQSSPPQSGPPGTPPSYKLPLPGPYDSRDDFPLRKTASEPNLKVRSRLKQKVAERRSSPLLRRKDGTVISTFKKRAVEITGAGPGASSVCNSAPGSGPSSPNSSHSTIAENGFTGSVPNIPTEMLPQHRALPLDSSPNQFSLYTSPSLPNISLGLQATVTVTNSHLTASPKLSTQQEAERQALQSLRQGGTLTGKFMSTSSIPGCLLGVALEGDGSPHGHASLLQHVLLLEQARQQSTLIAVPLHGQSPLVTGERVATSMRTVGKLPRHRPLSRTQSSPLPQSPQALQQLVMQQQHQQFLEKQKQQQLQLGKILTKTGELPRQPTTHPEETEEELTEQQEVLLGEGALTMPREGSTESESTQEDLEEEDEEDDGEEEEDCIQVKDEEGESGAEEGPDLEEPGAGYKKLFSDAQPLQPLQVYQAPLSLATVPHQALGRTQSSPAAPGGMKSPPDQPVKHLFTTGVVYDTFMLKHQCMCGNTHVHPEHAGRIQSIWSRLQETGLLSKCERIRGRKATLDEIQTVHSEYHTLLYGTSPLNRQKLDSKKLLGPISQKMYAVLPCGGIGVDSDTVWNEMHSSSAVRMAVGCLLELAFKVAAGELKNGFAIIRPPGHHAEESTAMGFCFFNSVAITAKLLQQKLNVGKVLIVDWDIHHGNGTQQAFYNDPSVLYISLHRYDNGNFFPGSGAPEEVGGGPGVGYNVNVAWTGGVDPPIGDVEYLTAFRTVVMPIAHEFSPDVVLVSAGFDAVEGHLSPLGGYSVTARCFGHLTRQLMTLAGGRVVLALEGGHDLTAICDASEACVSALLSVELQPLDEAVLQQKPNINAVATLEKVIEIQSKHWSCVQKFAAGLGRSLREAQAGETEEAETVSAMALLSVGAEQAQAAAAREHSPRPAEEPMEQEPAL
# Chain of HDAC 10 (Q969S8 whole entry): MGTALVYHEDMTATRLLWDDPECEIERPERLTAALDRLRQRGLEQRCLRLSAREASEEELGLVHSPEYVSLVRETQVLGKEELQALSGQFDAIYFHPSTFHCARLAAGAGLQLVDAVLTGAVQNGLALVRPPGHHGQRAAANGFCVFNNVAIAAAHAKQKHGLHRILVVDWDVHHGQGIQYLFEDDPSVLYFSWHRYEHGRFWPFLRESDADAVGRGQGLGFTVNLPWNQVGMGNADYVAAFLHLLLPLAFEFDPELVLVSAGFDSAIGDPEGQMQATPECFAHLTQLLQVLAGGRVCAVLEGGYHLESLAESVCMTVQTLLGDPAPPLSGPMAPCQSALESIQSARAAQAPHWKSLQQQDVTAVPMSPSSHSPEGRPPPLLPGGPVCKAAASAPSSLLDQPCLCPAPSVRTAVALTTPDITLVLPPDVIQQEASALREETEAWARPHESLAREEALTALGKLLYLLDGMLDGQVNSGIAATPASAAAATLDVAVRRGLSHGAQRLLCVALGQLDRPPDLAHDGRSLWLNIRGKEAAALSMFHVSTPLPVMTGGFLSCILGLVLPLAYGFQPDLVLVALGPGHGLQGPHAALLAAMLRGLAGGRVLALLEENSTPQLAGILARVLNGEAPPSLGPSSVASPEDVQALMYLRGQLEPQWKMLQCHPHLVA
structure (smiles),measurement,setting,value
CCCCCCCC(=O)SCC/C=C/[C@@H]1CC(=O)NCc2nc(cs2)C(=O)NC(C)(C)C(=O)N[C@@H](C(C)C)C(=O)O1 [OKI-005],"anti-proliferative activity, synergy","[1]; 72 hours, NRAS",synergistic anti-proliferative activity
same,cell growth inhibition and cell death (PARP cleavage),[1]; NRAS-mutated SKMEL2,significant cell growth inhibition and cell death
same,Loewe synergy,"[2]; combined with GDC-0994, KRAS^G12D",combination synergy was observed in all cases
same,Loewe synergy,"[2]; combined with MRTX1133, KRAS^G12D",combination synergy was observed in all cases
same,"anti-proliferative activity, synergy",[2]; [32],synergistic anti-proliferative activity
same,Loewe synergy,"[2]; combined with binimetinib, 72 hours, KRAS^G12D",combination synergy was observed in all cases
same,Loewe synergy,"[3]; combined with GDC-0994, KRAS^G12C",combination synergy was observed in all cases
same,"anti-proliferative activity, synergy",[3]; [32],synergistic anti-proliferative activity
same,Loewe synergy,"[3]; combined with binimetinib, 72 hours, KRAS^G12C",combination synergy was observed in all cases
same,Loewe synergy,"[3]; combined with sotorasib, KRAS^G12C",combination synergy was observed in all cases
same,"anti-proliferative activity, synergy",[4],synergistic anti-proliferative activity
same,"anti-proliferative activity, synergy",[5],synergistic anti-proliferative activity
same,"synergy, RAS mutated compared to RAS wild-type",[6],a superior effect greater than that of either agent alone
same,synergistic effects in MGMT-positive versus MGMT-negative cell lines,[7],synergistic effects
same,metabolism to active compound,[8],"metabolized to the same active compound, OKI-006"
CC(C)[C@H](N)C(=O)SCC/C=C/[C@@H]1CC(=O)NCc2nc(cs2)C(=O)NC(C)(C)C(=O)N[C@@H](C(C)C)C(=O)O1.O=S(=O)(O)c1ccccc1 [OKI-179],regressions,"[9]; combination with binimetinib versus either single agent, following two weeks of dosing",significantly increased regressions compared to either single agent
same,tumor growth delay and regressions,[9],"tumor growth delay, but few regressions"
same,"on-target PD activity, Ac-H3K9 (HDACi PD)",[10],strong on-target PD activity
same,regressions,[11],significantly increased regressions compared to either OKI-179 alone or the combination of binimetinib and encorafenib
same,mouse body weight loss,[12],greater weight loss than either OKI-179 alone or the combination of binimetinib and encorafenib
same,regressions,[13],significantly increased regressions compared to either OKI-179 or sotorasib alone
same,regressions,[14],regressions in multiple RAS-pathway mutated models
same,recommended Phase 2 dose (RP2D),"[15]; Schedule 1, oral, 4 days on and 3 days off each week",300 mg
same,MTD,"[15]; Schedule 1, oral, daily, 4 days on and 3 days off each week",450 mg
same,MTD,"[15]; Schedule 2, oral, daily, continuous dosing regimen",200 mg
same,MTD,"[15]; Schedule 3, oral, 5 days on and 2 days off each week",300 mg
same,pharmacodynamic activity,[16],strong pharmacodynamic activity at tolerated doses
same,metabolism to active compound,[8],"metabolized to the same active compound, OKI-006"
same,synergy at physiologically-relevant doses,[17],synergy associated with OKI-179 and binimetinib occurs at physiologically-relevant doses of OKI-179
"C/C=C1\NC(=O)[C@@H](CS)NC(=O)[C@@H](C(C)C)NC(=O)C[C@@H](/C=C/CCS)OC(=O)[C@H](C(C)C)NC1=O [Red-FK228, reference compound]",IC50,[18],1 nM
same,IC50,[19],> 1000 nM
same,IC50,[20],647 nM
same,IC50,[21],> 1000 nM
same,IC50,[22],> 1000 nM
same,IC50,[23],> 1000 nM
same,IC50,[24],226 nM
same,IC50,[25],0.9 nM
same,IC50,[26],0.3 nM
"Cn1cnc2c(F)c(Nc3ccc(Br)cc3F)c(C(=O)NOCCO)cc21 [binimetinib, reference compound]",tumor growth delay and regressions,[9],"tumor growth delay, but few regressions"
same,"on-target PD activity, pERK (MEKi PD)",[27],strong on-target PD activity
C=CC(=O)N1CCN(c2nc(=O)n(-c3c(C)ccnc3C(C)C)c3nc(-c4c(O)cccc4F)c(F)cc23)[C@@H](C)C1 [sotorasib],effectiveness,[28],relative ineffectiveness
same,effectiveness,[29],relative ineffectiveness
CCCS(=O)(=O)Nc1ccc(F)c(C(=O)c2c[nH]c3ncc(-c4ccc(Cl)cc4)cc23)c1F [vemurafenib],effectiveness,[30],relative ineffectiveness
same,effectiveness,[31],relative ineffectiveness
